Reference: patent US20160152704A1, “CADHERIN 15 AGONISTS” (THE UNIVERSITY OF BIRMINGHAM, priority 2013, published 2016)
Where two headings read alike, the source gives them in different places.

What was measured:
[1] = system: T cells (PBL) on HUVEC where CDH15 or THBS1 were knock-down; test: T cell transmigration assay using endothelial cells with siRNA knock-down of CDH15 or THBS1; assay type: cell-based, human; conditions: FIG. 4
Description: (§1) We measured the transmigration of T cells (PBL) after 6 minutes incubation at 37° C. on TNF-α and IFN-α stimulated endothelial cells (EC) using phase contrast microscopy. Cultured ECs were stimulated by cytokines for 24 hours. Subsequently, peripheral blood lymphocytes (PBL) were purified from the blood of healthy donors. PEPITEM was added to the PBL and these were incubated on the endothelial cells for 6 minutes. Non-adherent PBLs were removed by washing with cell free buffer. Video-microscope images of adherent cells were made from at least 5 fields of view for each EC monolayer. Adherent lymphocytes were either, i) phase bright (PB) and adherent to the apical surface of the endothelium, or ii) phase dark (PD) and migrated through the EC monolayer. The percentage of migrated cells was calculated by dividing the number of migrated cells by the total number of adherent lymphocytes (PB+PD) and multiplying by 100. To determine whether PEPITEM targets T-cells or endothelial cells, we pre-treated T-cells, endothelial cells or both T cells and endothelial cells with PEPITEM.
HUVEC were plated in a 12 well plate (87500 cells per well) for 24 hours or until about 80% confluence. The relevant siRNA were added at a final concentration of 50 nM to 83.75 μl or 82.5 μl if duplex in Optimem media (Life Technologies Invitrogen Compounds). […]

[2] = system: T cells (PBL) on TNF-α and IFN-α stimulated endothelial cells (EC); assay type: cell-based; conditions: FIG. 1
Description: as §1

[3] = biological target: T1, CDH15-FC protein (Homo sapiens, UniProt P55291); test: Surface plasmon resonance (Biocore 3000), PEPITEM perfused over immobilised CDH15-FC; assay type: binding; conditions: PEPITEM perfused at increasing concentration; FIG. 5
T1 construct: Fc
Description: Gold-coated chips were used to analyse the interaction of CDH15 with PEPITEM in the Biocore 3000 instrument. CDH15-FC protein was immobilised on a Biocore chip. PEPITEM was perfused through the Biocore cell at increasing concentration. […] This provides further evidence that cadherin-15 is the PEPITEM receptor.

T1 sequence (P55291 with tags, fused parts or gaps limits assumed): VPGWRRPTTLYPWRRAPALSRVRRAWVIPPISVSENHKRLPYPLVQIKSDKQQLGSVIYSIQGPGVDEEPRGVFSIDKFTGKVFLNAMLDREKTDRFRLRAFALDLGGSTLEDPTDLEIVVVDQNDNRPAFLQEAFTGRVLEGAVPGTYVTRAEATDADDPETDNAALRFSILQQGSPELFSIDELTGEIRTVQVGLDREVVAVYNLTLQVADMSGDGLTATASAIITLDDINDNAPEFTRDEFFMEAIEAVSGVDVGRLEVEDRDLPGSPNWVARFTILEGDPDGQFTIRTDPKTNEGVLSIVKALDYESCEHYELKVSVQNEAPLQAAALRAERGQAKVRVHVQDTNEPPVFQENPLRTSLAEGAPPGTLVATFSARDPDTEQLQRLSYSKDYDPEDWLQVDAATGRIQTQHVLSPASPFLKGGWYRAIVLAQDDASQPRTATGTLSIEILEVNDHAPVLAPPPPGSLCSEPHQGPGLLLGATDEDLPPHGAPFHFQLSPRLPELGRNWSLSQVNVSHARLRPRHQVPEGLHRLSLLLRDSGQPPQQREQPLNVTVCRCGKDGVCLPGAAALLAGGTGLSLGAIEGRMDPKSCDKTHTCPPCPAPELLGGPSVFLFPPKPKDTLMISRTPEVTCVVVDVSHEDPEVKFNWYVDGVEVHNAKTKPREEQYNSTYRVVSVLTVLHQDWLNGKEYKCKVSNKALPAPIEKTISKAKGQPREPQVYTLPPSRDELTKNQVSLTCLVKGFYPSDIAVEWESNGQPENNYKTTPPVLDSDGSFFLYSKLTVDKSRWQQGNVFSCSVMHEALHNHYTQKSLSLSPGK

Substance: PEPITEM (SVTEQGAELSNEER; listed as Homo sapiens)
- inhibitory effect on T cell transmigration ([1]; endothelial cells with CDH15 (cadherin-15) knockdown): released T-cells from the inhibitory effects
- effect on T-cell trafficking ([1]; endothelial cells with THBS1 (thrombospondin-1) knockdown, presence of PEPITEM): no significant effect
- inhibition of T cell transmigration ([2]; T-cells alone pre-treated with PEPITEM): ineffective at inhibiting transmigration
- inhibition of T cell transmigration ([2]; endothelial cells pre-treated with PEPITEM): transmigration is successfully inhibited
- binding to CDH15 protein (changes in SPR) [3]: able to bind to the CDH15 protein
